Source: patent publication US20100197600A1, “USE OF THE PEPTIDE HIS-SER-LEU-GLY-LYS-TRP-LEU-GLY-HIS-PRO-ASP-LYS-PHE ALONE OR IN COMBINATION WITH THE PEPTIDE PRO-GLY-THR-CYS-GLU-ILE-CYS-ALA-TYR-ALA-ALA-CYS-THR-GLY-CYS-OH AS A THERAPEUTIC AGENT” (priority 2007, published 2010)
No end group written: not given here.

Legend:
HCMV strain AD169 = assay: HCMV plaque formation assay in MRC-5 cells; details: for inhibition of HCMV plaque formation as compared to the virus control experiment: 10 micrograms per ml, MRC-5 cells, 7-10 days
HIV-1IIIB = assay: HIV-1 antiviral (cytopathic effect) assay in CEM-SS cells; details: for reduction of the cytopathic effect (CPE) in HIV-1 infected CEM-SS cells: 10 micrograms per ml, HIV-1IIIB, MTS readout; for antiviral activity of positive control compounds: HIV-1IIIB in CEM-SS cells
[1] = test system: hepatitis B virus (HBV) ayw strain; assay: HBV experimental assay system (secreted HBV DNA, TaqMan PCR); format: cell-based; details: 10 micrograms per ml; HepG2-2.2.15 cells; HBV DNA after six days
[2] = test system: Primary Human endothelial cells (HUVEC); assay: Endothelial cell migration assay; format: cell-based; details: 10 micrograms per ml, 22 hours
murine spleen cells = assay: Th1/Th2 cytokine profiling assay; format: cell-based, mouse; details: 10 micrograms per ml; Ovalbumin-restimulated murine spleen cells; 72 hours
HUVEC = assay: Endothelial tube formation assay; format: cell-based, human; details: 10 micrograms per ml, 20 hours
Text: Positive control wes vehicle only.

Streptococcus pneumoniae = Streptococcus pneumoniae assay; details: 10 micrograms per ml; visual reading

**Q.** For `Nc1nc(O)c2ncn(COC(CO)CO)c2n1` [Ganciclovir, reference compound], which “antiviral activity of positive control compound” value (HCMV strain AD169; positive control, HCMV in MRC-5 cells) is on record?
**A.** expected levels of antiviral activity

**Q.** “Pro-Gly-Thr-Cys-Glu-Ile-Cys-Ala-Tyr-Ala-Ala-Cys-Thr-Gly-Cys-OH (PGTCEICAYAACTGC-OH; cysteine pairing not given here) [Peptide 2]” was tested. Which “reduction of the cytopathic effect (CPE) in HIV-1 infected CEM-SS cells” value (HIV-1IIIB) did it give?
**A.** 13.2%

**Q.** And the “inhibition of HCMV plaque formation as compared to the virus control experiment” value (HCMV strain AD169)?
**A.** did not inhibit

**Q.** And the “inhibition of HBV replication as compared to the virus control infection” value [1]?
**A.** 21.7%

**Q.** And the “inhibition of the migration of human endothelial cells” value [2]?
**A.** 24%

**Q.** And the “change of the production of IL-5” value (murine spleen cells)?
**A.** did not significantly change

**Q.** And the “decrease of the production of IFN-γ” value (murine spleen cells)?
**A.** 38%

**Q.** What about the “increase (induction) of the production of TNF-α” value (murine spleen cells) of the same molecule?
**A.** did not significantly change

**Q.** What about the “increase of the production of IL-2” value (murine spleen cells) of the same molecule?
**A.** 35.5%

**Q.** And the “increase of the production of IL-4” value (murine spleen cells)?
**A.** 43.8%

**Q.** What about the “inhibition of the tube formation of human endothelial cells” value (HUVEC) of the same molecule?
**A.** 10%

**Q.** And the “inhibition of the growth of Streptococcus pneumoniae” value (Streptococcus pneumoniae)?
**A.** no effect

**Q.** For `Cc1cn([C@H]2C[C@H](N=[N+]=[N-])[C@@H](CO)O2)c(=O)[nH]c1=O` [AZT, zidovudine, reference compound], which “antiviral activity of positive control compounds” value (HIV-1IIIB) is on record?
**A.** expected levels of antiviral activity

**Q.** For “His-Ser-Leu-Gly-Lys-Trp-Leu-Gly-His-Pro-Asp-Lys-Phe (HSLGKWLGHPDKF; printed: His-Ser-Leu-Gly-Lys-Trp-Leu-Gly-His-Pro-Asp-Lys-Phe) [Peptide 1]”, which “reduction of the cytopathic effect (CPE) in HIV-1 infected CEM-SS cells” value (HIV-1IIIB) is on record?
**A.** 43.9%

**Q.** And the “inhibition of HCMV plaque formation as compared to the virus control experiment” value (HCMV strain AD169)?
**A.** did not inhibit

**Q.** What about the “inhibition of HBV replication as compared to the virus control infection” value [1] of the same molecule?
**A.** 43.4%

**Q.** What about the “inhibition of the migration of human endothelial cells” value [2] of the same molecule?
**A.** 12%

**Q.** And the “change of the production of IL-5” value (murine spleen cells)?
**A.** did not significantly change

**Q.** And the “decrease of the production of IFN-γ” value (murine spleen cells)?
**A.** did not significantly change

**Q.** And the “increase (induction) of the production of TNF-α” value (murine spleen cells)?
**A.** 21.2%

**Q.** And the “increase of the production of IL-2” value (murine spleen cells)?
**A.** 106.5%

**Q.** And the “increase of the production of IL-4” value (murine spleen cells)?
**A.** 117.8%

**Q.** What about the “inhibition of the tube formation of human endothelial cells” value (HUVEC) of the same molecule?
**A.** 10%

**Q.** What about the “inhibition of the growth of Streptococcus pneumoniae” value (Streptococcus pneumoniae) of the same molecule?
**A.** 100%

**Q.** For `CC(C)(C)NC(=O)[C@@H]1CN(Cc2cccnc2)CCN1C[C@@H](O)C[C@@H](Cc1ccccc1)C(=O)N[C@H]1c2ccccc2C[C@H]1O` [indinavir, reference compound], which “antiviral activity of positive control compounds” value (HIV-1IIIB) is on record?
**A.** expected levels of antiviral activity
